Experimental findings from ChEMBL document CHEMBL1121697, “Carbocyclic analogues of 5-fluorouracil nucleosides” (1981) are described below.

Common to all, as to format: functional
In test [1] the test system is Mus musculus. Briefly: Number of deaths recorded in mice with P388 leukemia on days 1-5 after intraperitoneal administration of 50 mg/kg of compound in a q.d. 1-9 schedule; 0/6.
The species named for test [2] is Mus musculus. Briefly: Median life span of the treated mice to that of control mice; 11.1/10.9.
The subject of test [3] is Mus musculus. Briefly: Average weight change in treated mice to that of control mice on the same day of administration of 50 mg/kg of compound in a q. d. 1-9 schedule.
Test [4] concerns Mus musculus. Briefly: Life span ratio of mice treated to that of control mice at dose 50 mg/kg, ip. The settings on record: route intraperitoneal.
In test [5] the test system is Mus musculus. Briefly: Number of deaths recorded in mice with P388 leukemia on days 1-5 after intraperitoneal administration of 400 mg/kg of compound in a q.d. 1-5 schedule; 0/6.
Test [6] deals with Mus musculus. Briefly: Number of deaths recorded in mice with P388 leukemia on days 1-5 after intraperitoneal administration of 50 mg/kg of compound in a q.d. 1-9 schedule; 0/5.
In test [7] the test system is Mus musculus. Briefly: Number of deaths recorded in mice with P388 leukemia on days 1-5 after intraperitoneal administration of 600 mg/kg of compound in a q.d. 1-5 schedule; 0/6.
Test [8] relates to Mus musculus. Briefly: Median life span of the treated L1210 leukemia mice to that of control mice after intraperitoneal administration of 100 mg/kg of compound in a q.d. 1-9 schedule; 8.3/8.2.
The test system of test [9] is Mus musculus. Briefly: Median life span of the treated P388 leukemia mice to that of control mice after intraperitoneal administration of 100 mg/kg of compound in a q.d. 1-9 schedule; 11.4/11.3.
The test system of test [10] is Mus musculus. Briefly: Median life span of the treated P388 leukemia mice to that of control mice after intraperitoneal administration of 200 mg/kg of compound in a q.d. 1-5 schedule 12.0/11.9.
In test [11] the test system is Mus musculus. Briefly: Median life span of the treated P388 leukemia mice to that of control mice after intraperitoneal administration of 400 mg/kg of compound in a q.d. 1-5 schedule; 14.3/11.9.
Test [12] concerns Mus musculus. Briefly: Median life span of the treated P388 leukemia mice to that of control mice after intraperitoneal administration of 50 mg/kg of compound in a q.d. 1-9 schedule; 10.5/10.9.
For test [13], the system named is Mus musculus. Briefly: Median life span of the treated P388 leukemia mice to that of control mice after intraperitoneal administration of 600 mg/kg of compound in a q.d. 1-5 schedule; 13.1/12.0.
For test [14], the system named is Mus musculus. Briefly: Number of deaths recorded in mice with L-1210 leukemia on days 1-5 after intraperitoneal administration of 100 mg/kg of compound in a q.d. 1-9 schedule; 0/6.
Test [15] relates to Mus musculus. Briefly: Number of deaths recorded in mice with P388 leukemia on days 1-5 after intraperitoneal administration of 100 mg/kg of compound in a q.d. 1-9 schedule; 0/6.
Test [16] relates to Mus musculus. Briefly: Number of deaths recorded in mice with P388 leukemia on days 1-5 after intraperitoneal administration of 200 mg/kg of compound in a q.d. 1-5 schedule; 0/6.
In test [17] the test system is Mus musculus. Briefly: Average weight change in treated L1210 leukemia mice to that of control mice on administration of 100 mg/kg of compound in a q. d. 1-9 schedule.
The test system of test [18] is Mus musculus. Briefly: Average weight change in treated P388 leukemia mice to that of control mice on administration of 100 mg/kg of compound in a q. d. 1-9 schedule.
The subject of test [19] is Mus musculus. Briefly: Average weight change in treated P388 leukemia mice to that of control mice on administration of 200 mg/kg of compound in a q. d. 1-5 schedule.
Test [20] concerns Mus musculus. Briefly: Average weight change in treated P388 leukemia mice to that of control mice on administration of 400 mg/kg of compound in a q. d. 1-5 schedule.
The subject of test [21] is Mus musculus. Briefly: Average weight change in treated P388 leukemia mice to that of control mice on administration of 50 mg/kg of compound in a q. d. 1-9 schedule.
Test [22] relates to Mus musculus. Briefly: Average weight change in treated P388 leukemia mice to that of control mice on administration of 600 mg/kg of compound in a q. d. 1-5 schedule.
In test [23] the test system is Mus musculus. Briefly: Life span ratio of L1210 leukemia mice treated to that of control mice at dose 100 mg/kg, ip. The settings on record: route intraperitoneal.
For test [24], the system named is Mus musculus. Briefly: Life span ratio of P388 leukemia mice treated to that of control mice at dose 100 mg/kg, ip. The settings on record: route intraperitoneal.
Test [25] has as its system Mus musculus. Briefly: Life span ratio of P388 leukemia mice treated to that of control mice at dose 200 mg/kg, ip. The settings on record: route intraperitoneal.
Test [26] has as its system Mus musculus. Briefly: Life span ratio of P388 leukemia mice treated to that of control mice at dose 400 mg/kg, ip. The settings on record: route intraperitoneal.
Test [27] concerns Mus musculus. Briefly: Life span ratio of P388 leukemia mice treated to that of control mice at dose 50 mg/kg, ip. The note with it: route intraperitoneal.
The subject of test [28] is Mus musculus. Briefly: Life span ratio of P388 leukemia mice treated to that of control mice at dose 600 mg/kg, ip. The settings on record: route intraperitoneal.

By T/C is commonly meant the result in the treated group divided by that in the control group, in per cent.

In the case of `O=c1[nH]c(=O)n(C2CC(CO)C(O)C2O)cc1F` (stereo not drawn), the No. of deaths in the test with Mus musculus [1] worked out at 0. In the test listed under Mus musculus [2], the Median life span worked out at 11.1 days. The compound further gave a Weight change with Mus musculus [3] of 0.9 g. In addition, in the test on Mus musculus [4], the T/C is given as 101%.
For the compound `O=c1[nH]c(=O)n([C@H]2C[C@H](O)[C@@H](CO)O2)cc1F` [FLOXURIDINE], the No. of deaths in the test on Mus musculus [5], in the test with Mus musculus [6], with Mus musculus [7], in the test with Mus musculus [14], in the test on Mus musculus [15] and in the test on Mus musculus [16] was 0 throughout. For the same compound, the Median life span in the test with Mus musculus [8] came out at 8.3 days; in the test on Mus musculus [9] it was 11.4 days; with Mus musculus [10], 12 days; in the test with Mus musculus [11] it was 14.3 days; with Mus musculus [12], 10.5 days; in the test on Mus musculus [13] it was 13.1 days. Further, the Weight change in the test with Mus musculus [17] is -0.5 g; in the test on Mus musculus [18], 0.6 g; with Mus musculus [19], 0.8 g; in the test on Mus musculus [20], -0.3 g; in the test on Mus musculus [21] it was 1 g; in the test with Mus musculus [22], -0.7 g. For the same compound, the T/C with Mus musculus [23] amounted to 101%; in the test with Mus musculus [24], 100%; in the test with Mus musculus [25], 100%; in the test with Mus musculus [26], 120%; in the test with Mus musculus [27], 96%; in the test with Mus musculus [28] it was 109%.
